{"source": "patent US20110098325A1", "about": "“PYRIDINE BENZAMIDES AND PYRAZINE BENZAMIDES USED AS PKD INHIBITORS” (CANCER RESEARCH TECHNOLOGY LIMITED, priority 2006, published 2011)"}
{"target": "T1, Murine PKD1 kinase domain (Mus musculus, UniProt Q62101)", "T1 construct": "hexahistidine (pFastBac HTb leader) (N); made in house; host or cells: Sf9 insect cells, baculovirus (Bac-to-Bac HT, pFastBac HTb)", "T1 sequence (Q62101 with tags, fused parts or gaps R683W)": "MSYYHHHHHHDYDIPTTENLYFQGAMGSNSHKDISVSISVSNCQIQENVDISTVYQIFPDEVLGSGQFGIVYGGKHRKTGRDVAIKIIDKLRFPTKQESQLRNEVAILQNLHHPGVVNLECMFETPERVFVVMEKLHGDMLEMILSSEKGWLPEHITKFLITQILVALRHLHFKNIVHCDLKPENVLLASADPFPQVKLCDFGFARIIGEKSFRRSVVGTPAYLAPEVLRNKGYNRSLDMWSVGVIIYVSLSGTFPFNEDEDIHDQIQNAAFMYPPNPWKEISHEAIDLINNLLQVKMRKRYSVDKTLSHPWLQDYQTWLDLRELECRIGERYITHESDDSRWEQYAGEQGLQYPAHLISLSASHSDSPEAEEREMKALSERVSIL", "assay": "PKD1 (Murine Kinase Domain) Enzyme Activity Assay (IMAP fluorescence polarisation)", "type": "biochemical", "conditions": "10 μM ATP, 60 minutes, room temperature", "source_text": "The DNA sequence corresponding to murine PKD1 (see FIG. 1) was inserted into pFastBAc Htb (Invitrogen, USA) at BamH1 and EcoR1 sites using standard molecular biology techniques.\nThe PKD1 described above was expressed as a hexahistidine tagged protein construct using a commercially available baculoviral expression system that induces protein production in insect cell culture (Bac-to-Bac® HT Baculovirus Expression System, Invitrogen). Protein was typically expressed by inoculating 1 L of sf9 cells with a genetically modified baculovirus containing the gene for the kinase domain of PKD1. Sf9 cells were obtained from ICR Ltd.\nPurification of PKD1 was achieved by standard chromatographic procedures. Capture from crude centrifuged lysed cell supernatant was achieved using metal affinity chromatography (GE Healthcare Life Sciences, HiTrap Chelating chromatography column), and fractions showing PKD1 (as assessed by gel electrophoresis and western blot) were further purified by a single polish purification step performed using a mono Q anion exchange chromatography system (GE Healthcare Life Sciences, HiTrap HP Q column). […] This protocol describes the method for screening compounds as inhibitors of Protein Kinase D activity in a 384 well microplate format fluorescence polarisation IMAP assay performed using the Biomek FX.\nKinase Enzyme: Murine PKD1 kinase domain at ˜100 μg/mL, was purified from baculovirus (as described above), obtained from aliquots stored at −70° C. PKD was prepared with a final concentration of 0.1 μg/mL by diluting 1:300 in Reaction Buffer (30 μL per 9 mL-5 mL per plate with an additional 4 mL dead volume) and vortexing prior to use. It was necessary to check this concentration regularly in case of enzyme degradation.\n(also known as MAPKAP K2 substrate) was obtained from Molecular Devices (Product code R7127). It was used at 300 nM by diluting 20 μM stock 1:66 in Kinase/Reaction Buffer (135 μL per 9 mL; 75 μL per 5 mL Reaction Buffer for blank wells requiring <1 mL per place with an additional 4 mL dead volume).\nA 1 mM ATP stock in Reaction Buffer was prepared from a 10 mM stock in 20 mM NaOH and stored as aliquots at −70° C. It was used at 40 μM by diluting 1 mM stock 1:25 in Reaction Buffer (240 μL per 6 mL-2 mL per plate with an additional 4 mL dead volume) and vortexing prior to use.\nIMAP Reagents: IMAP Binding Reagent (product code R7207) and Binding Buffer (product code R7208) were obtained from Molecular Devices and stored at +4° C. The beads were gently re-suspended before diluting by 1:400 in buffer (Binding Buffer is supplied as a 5× stock and so was diluted with water prior to use) and then vortexing before addition to wells. 16 mL water with 4 mL Binding Buffer and 50 μL Binding Reagent were used per plate (17 mL per plate with an additional 3 mL dead volume).\n13 μL Substrate in Reaction Buffer was added to ‘blank’ wells to give 200 nM reaction concentration. […] 2 μL 10% DMSO/water was added to ‘blank’ and ‘control’ wells. 5 μL ATP in Reaction Buffer was added to all wells to give 10 μM reaction concentration. The reaction mixture was then incubated at room temperature for 60 minutes. The incubation period was followed by the addition of 40 μL IMAP Binding Reagent in Binding Buffer to all wells. The reaction was then further incubated at room temperature for […].\nPercentage inhibition was calculated based on activity of the test sample minus the average values in the blank wells relative to the average values measured in control wells minus the average values in the blank wells.\nIC50 values were calculated from 10 point dose sigmoid ‘dose-response’ curves using Xlfit software (IDBS inc, USA). Data were fitted to a 4 parameter logistic model/sigmoidal dose response:\nwhere: A=fit minimum (locked to 0); B=fit maximum (locked to 100); C=fit midpoint (pre-fit to 1); D=slope at linear portion of curve, hillslope (pre-fit to 0.1)", "units": {"IC50": "nM"}}
{"smiles": "CN(C)CCNC(=O)c1cccc(-c2cnc(N)c(-c3cccs3)c2)c1", "note": "[Y-024, 3-(6-Amino-5-thiophen-2-yl-pyridin-3-yl)-N-(2-dimethylamino-ethyl)-benzamide]", "IC50": "< 1000"}
{"smiles": "CN(C)CCNC(=O)c1cccc(-c2cnc(N)c(-c3ccc4c(ccn4C)c3)c2)c1", "note": "[Y-027, 3-[6-Amino-5-(1-methyl-1H-indol-5-yl)-pyridin-3-yl]-N-(2-dimethylamino-ethyl)-benzamide]", "IC50": "< 1000"}
{"smiles": "CN(C)CCNC(=O)c1cccc(-c2cnc(N)c(-c3ccc4nccnc4c3)c2)c1", "note": "[Y-091, 3-(6-Amino-5-quinoxalin-6-yl-pyridin-3-yl)-N-(2-dimethylamino-ethyl)-benzamide]", "IC50": "< 1000"}
{"smiles": "CN(C)CCNC(=O)c1cccc(-c2cnc(N)c(-c3ccc(-c4ccccc4)cc3)c2)c1", "note": "[Y-014, 3-(6-Amino-5-biphenyl-4-yl-pyridin-3-yl)-N-(2-dimethylamino-ethyl)-benzamide]", "IC50": "< 1000"}
{"smiles": "CN(C)CCNC(=O)c1cccc(-c2cnc(N)c(-c3cccc(O)c3)c2)c1", "note": "[Y-077, 3-[6-Amino-5-(3-hydroxy-phenyl)-pyridin-3-yl]-N-(2-dimethylamino-ethyl)-benzamide]", "IC50": "< 1000"}
{"smiles": "COc1cc(-c2cncc(-c3cccc(C(N)=O)c3)n2)ccc1O", "note": "[X-018, 3-[6-(4-Hydroxy-3-methoxy-phenyl)-pyrazin-2-yl]-benzamide]", "IC50": "1000 to 10000"}
{"smiles": "COc1cc(-c2cncc(-c3cccc(C(=O)NCCN(C)C)c3)n2)cc(OC)c1OC", "note": "[X-003, N-(2-Dimethylamino-ethyl)-3-[6-(3,4,5-trimethoxy-phenyl)-pyrazin-2-yl]-benzamide]", "IC50": "1000 to 10000"}
{"smiles": "CN(C)CCNC(=O)c1cccc(-c2cncc(-c3ccc(CO)cc3)n2)c1", "note": "[X-005, N-(2-Dimethylamino-ethyl)-3-[6-(4-hydroxymethyl-phenyl)-pyrazin-2-yl]-benzamide]", "IC50": "< 1000"}
{"smiles": "COc1ccc2cc(-c3nc(-c4cccc(C(=O)NCCN(C)C)c4)cnc3N)ccc2c1", "note": "[X-025, 3-[5-Amino-6-(6-methoxy-naphthalen-2-yl)-pyrazin-2-yl]-N-(2-dimethylamino-ethyl)-benzamide]", "IC50": "< 1000"}
{"smiles": "Cc1ccc(-c2cc(-c3cccc(C(=O)NCCN(C)C)c3)cnc2N)cc1F", "note": "[Y-044, 3-[6-Amino-5-(3-fluoro-4-methyl-phenyl)-pyridin-3-yl]-N-(2-dimethylamino-ethyl)-benzamide]", "IC50": "< 1000"}
{"smiles": "CN(C)CCNC(=O)c1cccc(-c2cnc(N)c(-c3cncc4ccccc34)c2)c1", "note": "[Y-078, 3-(6-Amino-5-isoquinolin-4-yl-pyridin-3-yl)-N-(2-dimethylamino-ethyl)-benzamide]", "IC50": "< 1000"}
{"smiles": "CC(=O)Nc1cccc(-c2cncc(-c3cccc(C(=O)NCCCN(C)C)c3)n2)c1", "note": "[X-006, 3-[6-(3-Acetylamino-phenyl)-pyrazin-2-yl]-N-(3-dimethylamino-propyl)-benzamide]", "IC50": "< 1000"}
{"smiles": "CN(C)CCNC(=O)c1cccc(-c2cnc(N)c(-c3ccc(O)cc3)c2)c1", "note": "[Y-079, 3-[6-Amino-5-(4-hydroxy-phenyl)-pyridin-3-yl]-N-(2-dimethylamino-ethyl)-benzamide]", "IC50": "< 1000"}
{"smiles": "CC(=O)Nc1cccc(-c2cc(-c3cccc(C(=O)NCCN(C)C)c3)cnc2N)c1", "note": "[Y-076, 3-[5-(3-Acetylamino-phenyl)-6-amino-pyridin-3-yl]-N-(2-dimethylamino-ethyl)-benzamide]", "IC50": "< 1000"}
{"smiles": "COc1cc(-c2cncc(-c3cccc(C(=O)NC4CCN(C)CC4)c3)n2)ccc1O", "note": "[X-019, 3-[6-(4-Hydroxy-3-methoxy-phenyl)-pyrazin-2-yl]-N-(1-methyl-piperidin-4-yl)-benzamide]", "IC50": "< 1000"}
{"smiles": "CN(C)CCNC(=O)c1cccc(-c2cnc(N)c(-c3cnc4ccccc4c3)c2)c1", "note": "[Y-090, 3-(6-Amino-5-quinolin-3-yl-pyridin-3-yl)-N-(2-dimethylamino-ethyl)-benzamide]", "IC50": "< 1000"}
{"smiles": "COc1cc(-c2cc(-c3cccc(C(=O)NCCN(C)C)c3)cnc2N)ccn1", "note": "[Y-005, 3-(2-Amino-2′-methoxy-[3,4′]bipyridinyl-5-yl)-N-(2-dimethylamino-ethyl)-benzamide]", "IC50": "< 1000"}
{"smiles": "CN(C)CCNC(=O)c1cccc(-c2cnc(N)c(-c3ccc(CO)cc3)c2)c1", "note": "[Y-061, 3-[6-Amino-5-(4-hydroxymethyl-phenyl)-pyridin-3-yl]-N-(2-dimethylamino-ethyl)-benzamide]", "IC50": "< 1000"}
{"smiles": "COc1ccc(-c2cc(-c3cccc(C(N)=O)c3)cnc2N)cc1OC", "note": "[Y-034, 3-[6-Amino-5-(3,4-dimethoxy-phenyl)-pyridin-3-yl]-benzamide]", "IC50": "1000 to 10000"}
{"smiles": "CN(C)CCNC(=O)c1cccc(-c2cnc(N)c(-c3cccc4ccccc34)c2)c1", "note": "[Y-019, 3-(6-Amino-5-naphthalen-1-yl-pyridin-3-yl)-N-(2-dimethylamino-ethyl)-benzamide]", "IC50": "< 1000"}
{"smiles": "CCN(CC)CCNC(=O)c1cccc(-c2cnc(N)c(-c3cccc(OC)c3)c2)c1", "note": "[Y-096, 3-[6-Amino-5-(3-methoxy-phenyl)-pyridin-3-yl]-N-(2-diethylamino-ethyl)-benzamide]", "IC50": "< 1000"}
{"smiles": "COc1ccc(-c2cc(-c3cccc(C(=O)NCCN(C)C)c3)cnc2N)cc1", "note": "[Y-063, 3-[6-Amino-5-(4-methoxy-phenyl)-pyridin-3-yl]-N-(2-dimethylamino-ethyl)-benzamide]", "IC50": "< 1000"}
{"smiles": "COc1cccc(-c2cncc(-c3cccc(C(=O)NCCCN(C)C)c3)n2)c1", "note": "[X-001, N-(3-Dimethylamino-propyl)-3-[6-(3-methoxy-phenyl)-pyrazin-2-yl]-benzamide]", "IC50": "1000 to 10000"}
{"smiles": "CN(C)CCNC(=O)c1cccc(-c2cnc(N)c(-c3ccc4[nH]ccc4c3)c2)c1", "note": "[Y-026, 3-[6-Amino-5-(1H-indol-5-yl)-pyridin-3-yl]-N-(2-dimethylamino-ethyl)-benzamide]", "IC50": "< 1000"}
{"smiles": "CC(C)Oc1cccc(-c2cc(-c3cccc(C(=O)NCCN(C)C)c3)cnc2N)c1", "note": "[Y-046, 3-[6-Amino-5-(3-isopropoxy-phenyl)-pyridin-3-yl]-N-(2-dimethylamino-ethyl)-benzamide]", "IC50": "1000 to 10000"}
{"smiles": "CN(C)CCNC(=O)c1cccc(-c2cnc(N)c(-c3ccccc3OCc3ccccc3)c2)c1", "note": "[Y-030, 3-[6-Amino-5-(2-benzyloxy-phenyl)-pyridin-3-yl]-N-(2-dimethylamino-ethyl)-benzamide]", "IC50": "1000 to 10000"}
{"smiles": "CN(C)CCNC(=O)c1cccc(-c2cnc(N)c(-c3ccc(O)c(F)c3)c2)c1", "note": "[Y-042, 3-[6-Amino-5-(3-fluoro-4-hydroxy-phenyl)-pyridin-3-yl]-N-(2-dimethylamino-ethyl)-benzamide]", "IC50": "< 1000"}
{"smiles": "CN(C)CCNC(=O)c1cccc(-c2cnc(N)c(-c3ccc4cc(O)ccc4c3)n2)c1", "note": "[X-023, 3-[5-Amino-6-(6-hydroxy-naphthalen-2-yl)-pyrazin-2-yl]-N-(2-dimethylamino-ethyl)-benzamide]", "IC50": "< 1000"}
{"smiles": "COc1cc(-c2cncc(-c3cccc(C(=O)N4CCNCC4)c3)n2)ccc1O", "note": "[X-010, {3-[6-(4-Hydroxy-3-methoxy-phenyl)-pyrazin-2-yl]-phenyl}-piperazin-1-yl-methanone]", "IC50": "1000 to 10000"}
